Holding throughout (type): biochemical
In assay [1] the target is T1, human VEGFR2 (Homo sapiens, UniProt P35968).
T1 construct: kinase domain (amino acids 790 to end) fragment; 6xHis (N); made in house; host or cells: Sf21 insect cells (baculovirus)
The assay is described as follows: VEGFR2/KDR radioisotope kinase assay. Conditions: 100 μM ATP; read-out: VEGFR2 IC50. Here is the method: (a) An In Vitro Assay which-Determines the Ability of a Test Compound to Inhibit a Receptor Tyrosine Kinase.
The ability of compounds to inhibit receptor kinase (VEGFR2 and PDGFR-beta) activity was assayed using standard radioisotope assay for kinase. […] The proteins were purified using Ni2+/NTA agarose affinity column to purity
>85% as determined by coomassie blue-stained SDS-PAGE gel. For VEGFR2/KDR assay, p33 ATP tracers were incubated with purified recombinant VEGFR2 kinase to monitor the enzyme activity. In this assay, reactions were carried out in the presence of 0.1 mg/ml VEGFR2 kinase and 0.33 mg/ml myelin basic protein. The reaction was carried out at 30° C. for 120 minutes in a final assay condition contained 50 mM Tris-HCl, pH 7.5, 300 mM NaCl, 0.1 mM EGTA, 0.03% Brij 35, 270 mM sucrose, 1 mM benzamidine, 0.2 mM PMSF, 0.1% 2-mercaptoethanol and 100 μM ATP. An equal volume of 25% TCA was added to stop the reaction and precipitate the labeled proteins. Precipitated proteins were trapped onto glass fiber B filterplates and excess unlabeled p33 ATP was washed off. The plates were allowed to air-dry prior to the addition of 30 uL/well of Packard Microscint 20. The amount of incorporated isotope was measured using a Perkin Elmer TopCount plate reader. Different concentrations of compounds were added to reaction to assess the activity of compounds to inhibit VEGFR2 kinase. IC50 was calculated using Prism software with sigmoidal dose-response curve fitting.

Assay [2] deals with HDAC. The assay is described as follows: HDAC fluorimetric assay kit (HeLa nuclear extract). On the procedure: (b) An In Vitro Assay which Determines the Ability of a Test Compound to Inhibit HDAC Enzymatic Activity.
HDAC inhibitors were screened using an HDAC fluorimetric assay kit (AK-500, Biomol, Plymouth Meeting, Pa.). Test compounds were dissolved in dimethylsulphoxide (DMSO) to give a 20 mM working stock concentration. Fluorescence was measured on a WALLAC Victor 2 plate reader and reported as relative fluorescence units (RFU). Data were plotted using GraphPad Prism (v4.0a) and IC50's calculated using a sigmoidal dose response curve fitting algorithm. Each assay was setup as follows: Defrosted all kit components and kept on ice until use. Diluted HeLa nuclear extract 1:29 in Assay Buffer (50 mM Tris/Cl, pH 8.0, 137 mM NaCl, 2.7 mM KCl, 1 mM MgCl2). Prepared dilutions of Trichostatin A (TSA, positive control) and tested compounds in assay buffer (5× of final concentration). Diluted Fluor de Lys™ Substrate in assay buffer to 100 uM (50 fold=2× final). Diluted Fluor de Lys™ developer concentrate 20-fold (e.g. 50 μl plus 950 μl Assay Buffer) in cold assay buffer. Second, diluted the 0.2 mM Trichostatin A 100-fold in the 1× Developer (e.g. 10 μl in 1 ml; final Trichostatin A concentration in the 1× Developer=2 μM; final concentration after addition to HDAC/Substrate reaction=1 μM). Added Assay buffer, diluted trichostatin A or test inhibitor to appropriate wells of the microtiter plate. Added diluted HeLa extract or other HDAC sample to all wells except for negative controls. Allowed diluted Fluor de Lys™ Substrate and the samples in the microtiter plate to equilibrate to assay temperature (e.g. 25 or 37° C. Initiated HDAC reactions by adding diluted substrate (25 μl) to each well and mixing thoroughly. Allowed HDAC reactions to proceed for 1 hour and then stopped them by addition of Fluor de Lys™ Developer (50 μl). Incubated plate at room temperature (25° C.) for 10-15 min. Read samples in a microtiter-plate reading fluorimeter capable of excitation at a wavelength in the range 350-380 nm and detection of emitted light in the range 440-460 nm.

Assay [3] addresses T2, human EGFR (Homo sapiens, UniProt P00533).
T2 construct: human EGFR (His672-Ala1210); purchased Cell Signaling Technologies; host or cells: baculovirus expression system
The assay is described as follows: EGFR kinase assay (HTScan EGF Receptor Kinase Assay Kit, DELFIA). As to conditions: 200 μM ATP. Here is the method:
(e) An In Vitro Assay which Determines the Ability of a Test Compound to Inhibit EGFR Kinase.
The ability of compounds to inhibit receptor kinase (EGFR) activity was assayed using HTScan™ EGF Receptor Kinase Assay Kits (Cell Signaling Technologies, Danvers, Mass.). EGFR tyrosine kinase was obtained as GST-kinase fusion protein which was produced using a baculovirus expression system with a construct expressing human EGFR (His672-Ala1210) (GenBank Accession No. NM_005228) with an amino-terminal GST tag. The protein was purified by one-step affinity chromatography using glutathione-agarose. An anti-phosphotyrosine monoclonal antibody, P-Tyr-100, was used to detect phosphorylation of biotinylated substrate peptides (EGFR), Biotin-PTP1B (Tyr66). Enzymatic activity was tested in 60 mM HEPES, 5 mM MgCl2 5 mM MnCl2 200 μM ATP, 1.25 mM DTT, 3 μM Na3VO4, 1.5 mM peptide, and 50 ng EGF Receptor Kinase. Bound antibody was detected using the DELFIA system (PerkinElmer, Wellesley, Mass.) consisting of DELFIA® Europium-labeled Anti-mouse IgG (PerkinElmer, #AD0124), DELFIA® Enhancement Solution (PerkinElmer, #1244-105), and a DELFIA® Streptavidin coated, 96-well Plate (PerkinElmer, AAAND-0005). Fluorescence was measured on a WALLAC Victor 2 plate reader and reported as relative fluorescence units (RFU). Data were plotted using GraphPad Prism (v4.0a) and IC50's calculated using a sigmoidal dose response curve fitting algorithm.
Test compounds were dissolved in dimethylsulfoxide (DMSO) to give a 20 mM working stock concentration. Each assay was setup as follows: Added 100 μl of 10 mM ATP to 1.25 ml 6 mM substrate peptide. Diluted the mixture with dH2O to 2.5 ml to make 2×ATP/substrate cocktail ([ATP]=[…], [substrate]=3 mM). Immediately transfer enzyme from −80° C. to ice. Allowed enzyme to thaw on ice. Microcentrifuged briefly at 4° C. to bring liquid to the bottom of the vial. Returned immediately to ice. Added 10 μl of DTT (1.25 mM) to 2.5 ml of 4× HTScan™ Tyrosine Kinase Buffer (240 mM HEPES pH 7.5, 20 mM MgCl2, 20 mM MnCl, 12 mM NaVO3) to make DTT/Kinase buffer. Transfer 1.25 ml of DTT/Kinase buffer to enzyme tube to make 4× reaction cocktail ([enzyme]=4 ng/μL in 4× reaction cocktail). Incubated 12.5 μl of the 4× reaction cocktail with 12.5 μl/well of prediluted compound of interest (usually around 10 μM) for 5 minutes at room temperature. Added 25 μl of 2×ATP/substrate cocktail to 25 μl/well preincubated reaction cocktail/compound. Incubated reaction plate at room temperature for 30 minutes. Added 50 μl/well Stop Buffer (50 mM EDTA, pH 8) to stop the reaction. Transferred 25 μl of each reaction and 75 μl dH2O/well to a 96-well streptavidin-coated plate and incubated at room temperature for 60 minutes. Washed three times with 200 μl/well PBS/T (PBS, 0.05% Tween-20). Diluted primary antibody, Phospho-Tyrosine mAb (P-Tyr-100), 1:1000 in PBS/T with 1% bovine serum albumin (BSA). Added 100 μl/well primary antibody. Incubated at room temperature for 60 minutes. Washed three times with 200 μl/well PBS/T. Diluted Europium labeled anti-mouse IgG 1:500 in PBS/T with 1% BSA. Added 100 μl/well diluted antibody. Incubated at room temperature for 30 minutes. Washed five times with 200 μl/well PBS/T. Added 100 μl/well DELFIA® Enhancement Solution. Incubated at room temperature for 5 minutes. Detected 615 nm fluorescence emission with appropriate Time-Resolved Plate Reader.

Bounds are passed on as bounds.

The IC50 is the concentration at which inhibition is half-maximal.

T1 sequence (P35968 790-1356 limits assumed): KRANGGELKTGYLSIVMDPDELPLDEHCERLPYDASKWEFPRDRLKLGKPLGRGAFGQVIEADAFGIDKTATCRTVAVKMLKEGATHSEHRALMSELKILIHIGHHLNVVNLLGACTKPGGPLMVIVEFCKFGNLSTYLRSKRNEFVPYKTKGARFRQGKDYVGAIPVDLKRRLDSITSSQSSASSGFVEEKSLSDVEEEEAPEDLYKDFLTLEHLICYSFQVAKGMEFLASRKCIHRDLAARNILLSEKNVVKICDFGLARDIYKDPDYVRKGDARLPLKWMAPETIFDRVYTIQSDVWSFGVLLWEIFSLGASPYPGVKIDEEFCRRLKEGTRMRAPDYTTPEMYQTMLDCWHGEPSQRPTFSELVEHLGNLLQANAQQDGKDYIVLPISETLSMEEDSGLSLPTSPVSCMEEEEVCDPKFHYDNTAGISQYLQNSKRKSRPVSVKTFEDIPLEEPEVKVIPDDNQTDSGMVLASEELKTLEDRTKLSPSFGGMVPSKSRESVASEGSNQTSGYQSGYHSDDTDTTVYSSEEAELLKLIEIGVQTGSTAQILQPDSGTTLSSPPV
T2 sequence (P00533 672-1210): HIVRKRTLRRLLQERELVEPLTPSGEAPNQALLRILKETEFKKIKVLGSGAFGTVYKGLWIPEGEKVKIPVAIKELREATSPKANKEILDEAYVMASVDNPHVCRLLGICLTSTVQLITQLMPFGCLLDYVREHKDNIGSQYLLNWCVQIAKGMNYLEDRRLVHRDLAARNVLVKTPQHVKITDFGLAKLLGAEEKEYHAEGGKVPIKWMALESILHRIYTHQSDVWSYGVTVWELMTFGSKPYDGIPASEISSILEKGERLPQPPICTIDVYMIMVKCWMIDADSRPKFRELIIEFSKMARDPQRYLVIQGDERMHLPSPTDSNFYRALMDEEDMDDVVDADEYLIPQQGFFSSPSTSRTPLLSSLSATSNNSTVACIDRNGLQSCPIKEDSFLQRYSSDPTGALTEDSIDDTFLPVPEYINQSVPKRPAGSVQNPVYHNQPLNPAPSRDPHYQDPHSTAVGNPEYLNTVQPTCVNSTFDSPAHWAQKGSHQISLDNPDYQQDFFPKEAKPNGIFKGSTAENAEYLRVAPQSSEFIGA

As to `COc1cc2c(Nc3ccc4occc4c3)ncnc2cc1OCCCCCCC(=O)NO` [Compound 6, 7-(4-(benzofuran-5-ylamino)-6-methoxyquinazolin-7-yloxy)-N-hydroxyheptanamide], the values for the IC50 in assay [1] and in assay [2] were 1000 to 10000 nM and below 100 nM, respectively.

Turning to `COc1cc2c(Oc3ccc4[nH]c(C)cc4c3F)ncnc2cc1OCCCCC(=O)NO` [Compound 9, 5-(4-(4-fluoro-2-methyl-1H-indol-5-yloxy)-6-methoxyquinazolin-7-yloxy)-N-hydroxypentanamide], the IC50 in assay [2] was in the range of 100 to 1000 nM.

With `COc1cc2c(Nc3ccc4[nH]c(C)cc4c3F)ncnc2cc1OCCCCC(=O)NO` [Compound 12, 5-(4-(4-fluoro-2-methyl-1H-indol-5-ylamino)-6-methoxyquinazolin-7-yloxy)-N-hydroxypentanamide], the IC50 in assay [3] and in assay [2] was 100 to 1000 nM each time.

The record behind these values is patent US20090076044A1, “VEGFR INHIBITORS CONTAINING A ZINC BINDING MOIETY” (priority 2007, published 2009).
